Experimental data: PMC6273687, “Design, Synthesis and Biological Evaluation of Novel Primaquine-Cinnamic Acid Conjugates of the Amide and Acylsemicarbazide Type” (Molecules, 2016)

Key:
[1] = Interaction with the stable radical DPPH (reducing ability)
Experimental: To a solution of DPPH in absolute ethanol the appropriate volume of the compounds (50 or 100 µM final concentrations) dissolved in DMSO was added. The absorbance was recorded at 517 nm after 20 and 60 min at room temperature. The experiments were repeated at least in triplicate and the standard deviation of absorbance was less than 10% of the mean. NDGA was used under the same experimental conditions as a reference compound.

[2] = molecular target: T1, soybean lipoxygenase (LOX) (Glycine max, UniProt P08170); assay: LOX inhibition study in vitro; format: biochemical; settings: for inhibition at 100 µM: 1 × 10^−4 M
T1 construct: purchased Sigma-Aldrich
T1 sequence (P08170 1-839): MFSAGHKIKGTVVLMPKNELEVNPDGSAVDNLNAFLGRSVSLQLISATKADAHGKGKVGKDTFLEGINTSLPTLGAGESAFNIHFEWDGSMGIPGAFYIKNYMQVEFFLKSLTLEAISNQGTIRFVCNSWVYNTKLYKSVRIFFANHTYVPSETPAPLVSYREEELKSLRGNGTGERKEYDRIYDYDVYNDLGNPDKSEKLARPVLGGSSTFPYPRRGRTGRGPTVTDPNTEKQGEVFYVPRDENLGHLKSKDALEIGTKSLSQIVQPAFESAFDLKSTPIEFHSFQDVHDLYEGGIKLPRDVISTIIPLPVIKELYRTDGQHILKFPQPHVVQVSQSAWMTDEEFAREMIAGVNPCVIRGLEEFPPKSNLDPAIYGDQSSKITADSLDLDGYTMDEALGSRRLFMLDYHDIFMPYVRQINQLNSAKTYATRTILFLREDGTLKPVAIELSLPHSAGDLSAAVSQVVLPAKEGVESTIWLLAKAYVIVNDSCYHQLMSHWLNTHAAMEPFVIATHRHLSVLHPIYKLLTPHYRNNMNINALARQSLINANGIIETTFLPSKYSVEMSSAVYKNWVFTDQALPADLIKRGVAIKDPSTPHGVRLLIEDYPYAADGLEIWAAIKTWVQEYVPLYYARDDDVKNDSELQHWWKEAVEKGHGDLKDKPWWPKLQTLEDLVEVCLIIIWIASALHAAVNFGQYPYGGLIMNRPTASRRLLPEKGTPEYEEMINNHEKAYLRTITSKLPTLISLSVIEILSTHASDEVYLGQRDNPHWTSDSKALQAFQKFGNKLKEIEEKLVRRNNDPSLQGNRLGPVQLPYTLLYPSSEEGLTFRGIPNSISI
Experimental: LOX inhibitory assay in vitro was accomplished as described previously. The test compounds (stock solutions 10 mM in DMSO) were incubated at room temperature with sodium linoleate (c = 0.1 mM) and 0.2 mL of LOX enzyme solution (1/9 × 10^−4 m/V in saline). The conversion of sodium linoleate to 13-hydroperoxylinoleic acid was measured at 234 nm and compared with the reference inhibitor. Several concentrations were used for the IC50 determination.

[3] = tested on: NCI-H460 lung carcinoma cell line; assay: Growth inhibition of tumor cell lines in vitro (MTT / cell counting); format: cell-based, human; settings: Homo sapiens, 72 h; NCI-H460, 3 days
Experimental: (§1) The experiments were carried out on a murine lymphocytic leukemia cell line (L1210) and five human tumor cell lines: CEM, HeLa, NCI-H460, SW 620 and MCF-7. The cells were cultured as monolayers and maintained in Dulbecco′s modified Eagle medium (DMEM) supplemented with 10% fetal bovine serum (FBS), 2 mM L-glutamine, 100 U/mL penicillin and 100 μg/mL streptomycin in a humidified atmosphere with 5% CO2 at 37 °C.
(§2) The growth inhibition activity of the compounds was assessed as described previously. The cell lines were inoculated onto a series of standard 96-well microtiter plates on day 0, at 1.5 × 10^4 cells/mL (SW 620, H460) to 2.5 × 10^4 cells/mL (MCF-7, CEM and L1210), depending on the growth of the tumor cell line. Test agents were then added in ten-fold dilutions (10^−8 to 10^−4 M) and the cell cultures were then incubated for 3–4 days with 5% CO2 at 37 °C. Working dilutions of the compounds were freshly prepared on the day of testing.
(§3) After 3 (MCF-7, SW 620, NCI-H460) or 4 days (CEM, L1210), the cell growth rate was evaluated first light microscopically, then by viable cell counting and/or by performing the MTT assay, which detects dehydrogenase activity in live, not dead, cells. The absorbance (A) was measured on a microplate reader at 570 nm. The absorbance is directly proportional to the number of living, metabolically active cells. […] If however, all of the tested concentrations produce PGs exceeding the respective reference level of effect (e.g., PG value of 50), then the highest tested concentration is assigned as the default value, which is preceded by a “>” sign. Minimum two individual experiments were carried out and each test point was performed in quadruplicate.

[4] = tested on: MCF-7 breast carcinoma cell line; assay: as above; format: cell-based, human; settings: Homo sapiens, MCF7, 72 h; MCF-7, 3 days
Experimental: as §1, §2, §3

[5] = tested on: SW 620 colon carcinoma cell line; assay: as above; format: cell-based; settings: Homo sapiens, 72 h; SW 620, 3 days
Experimental: as §1, §2, §3

[6] = tested on: HeLa cervical carcinoma cell line; assay: as above; format: cell-based; settings: Homo sapiens
Experimental: as §1, §2, §3

[7] = tested on: CEM acute lymphoblastic leukemia cell line; assay: as above; format: cell-based; settings: Homo sapiens, 96 h, 4 days
Experimental: as §1, §2, §3

[8] = tested on: L1210 murine lymphocytic leukemia cell line; assay: as above; format: cell-based; settings: Mus musculus, 96 h; L1210, 4 days
Experimental: as §1, §2, §3

[9] = Inhibition of linoleic acid peroxidation (AAPH-induced); settings: 5 × 10^−5 M
Experimental: For initiating the lipid peroxidation free radical AAPH was used. Final solution in the UV cuvette consisted of 10 μL linoleate sodium solution (c = 16 mM), 0.93 mL phosphate buffer (c = 0.05 M), pH 7.4, thermostated at 37 °C. 50 μL AAPH solution (c = 40 mM) and 10 μL of the tested compounds were added. The experiment was performed at 37 °C under air. The oxidation of linoleic acid sodium salt was monitored at 234 nm. The assays were repeated at least in triplicate and the standard deviation of absorbance was less than 10% of the mean. Trolox was used under the same experimental conditions as a reference compound.

| SMILES | inhibition at 100 µM [2] | IC50 [3] | IC50 [4] | IC50 [5] | IC50 [6] | IC50 [7] | IC50 [8] | IC50 ([2]; values in parentheses in Table 3) | DPPH-reducing ability RA (%) ([1]; 1 × 10^−4 M, 20 min) | DPPH-reducing ability RA (%) ([1]; 1 × 10^−4 M, 60 min) | DPPH-reducing ability RA (%) ([1]; 5 × 10^−5 M, 20 min) | DPPH-reducing ability RA (%) ([1]; 5 × 10^−5 M, 60 min) | LP Inhibition (%) [9] |
| --- | --- | --- | --- | --- | --- | --- | --- | --- | --- | --- | --- | --- | --- |
| COc1cc(NC(C)CCCNC(=O)/C=C/c2ccc(Cl)cc2)c2ncccc2c1 (stereo not drawn) [3g, (E)-3-(4-Chlorophenyl)-N-(4-(6-methoxyquinolin-8-ylamino)pentyl)acrylamide] | 17% | > 100 µM | 4.3 ± 1 µM | > 100 µM | 36 ± 16 µM | 20 ± 2 µM | 63 ± 2 µM |  | 27% | 46% |  |  | 46% |
| COc1cc(NC(C)CCCNC(=O)/C=C/c2ccccc2F)c2ncccc2c1 (stereo not drawn) [3h, (E)-3-(2-Fluorophenyl)-N-(4-(6-methoxyquinolin-8-ylamino)pentyl)acrylamide] | 10% | > 100 µM | 1.1 ± 0.6 µM | 0.3 ± 0.1 µM | 2.1 ± 2.1 µM | 18 ± 15 µM | 66 ± 5 µM |  |  |  |  |  | 66% |
| COc1cc(NC(C)CCCNC(=O)/C=C/c2cccc(C(F)(F)F)c2)c2ncccc2c1 (stereo not drawn) [3i] | 19% | > 100 µM | 11 ± 2 µM | 64 ± 41 µM | 112 ± 11 µM | 41 ± 15 µM | 68 ± 2 µM |  |  | 8% |  | 13% | 32% |
| COc1cc(NC(C)CCCNC(=O)/C=C/c2ccc(C(F)(F)F)cc2)c2ncccc2c1 (stereo not drawn) [3j, (E)-N-(4-(6-Methoxyquinolin-8-ylamino)pentyl)-3-(4-(trifluoromethyl)phenyl)acrylamide] |  | > 100 µM | 3.9 ± 0.6 µM | > 100 µM | 25 ± 6 µM | 14 ± 1 µM | 50 ± 18 µM | 50 µM | 38% | 40% |  |  | 77% |
| COc1cc(NC(C)CCCNC(=O)/C=C/c2cc(C(F)(F)F)cc(C(F)(F)F)c2)c2ncccc2c1 (stereo not drawn) [3k, (E)-3-(3,5-Bis(trifluoromethyl)phenyl)-N-[4-(6-methoxyquinolin-8-ylamino)pentyl]acrylamide] | 43% | > 100 µM | 2.6 ± 0.5 µM | > 100 µM | 18 ± 1 µM | 68 ± 29 µM | 92 ± 24 µM |  |  | 50% |  |  | 65% |
| CC(Cc1ccc(O)c(O)c1)C(C)Cc1ccc(O)c(O)c1 (stereo not drawn) [NDGA, nordihydroguaiaretic acid, reference compound] |  |  |  |  |  |  |  |  | 89% | 94% | 83% | 87% |  |
| Cc1c(C)c2c(c(C)c1O)CCC(C)(C(=O)O)O2 (stereo not drawn) [Trolox, 6-hydroxy-2,5,7,8-tetramethylchroman-2-carboxylic acid, reference compound] |  |  |  |  |  |  |  |  |  |  |  |  | 88% |

Continued, in another order:

| inhibition at 100 µM [2] | IC50 [3] | IC50 [4] | IC50 [5] | IC50 [6] | IC50 [7] | IC50 [8] | IC50 ([2]; values in parentheses in Table 3) | SMILES | DPPH-reducing ability RA (%) ([1]; 1 × 10^−4 M, 20 min) | DPPH-reducing ability RA (%) ([1]; 1 × 10^−4 M, 60 min) | DPPH-reducing ability RA (%) ([1]; 5 × 10^−5 M, 20 min) | DPPH-reducing ability RA (%) ([1]; 5 × 10^−5 M, 60 min) | LP Inhibition (%) [9] |
| --- | --- | --- | --- | --- | --- | --- | --- | --- | --- | --- | --- | --- | --- |
| 19% | > 1 µM | 24 ± 5 µM | 23 ± 9 µM | 4 ± 0.9 µM | 27 ± 4 µM | 52 ± 3 µM |  | COc1cc(NC(C)CCCNC(=O)/C=C/c2ccccc2)c2ncccc2c1 (stereo not drawn) [3a, (E)-N-(4-(6-Methoxyquinolin-8-ylamino)pentyl)-3-phenylacrylamide] | 53% | 33% | 16% | 20% | 44% |
| 14% | > 100 µM | 9.4 ± 0.2 µM | > 100 µM | 106 ± 26 µM | 55 ± 6 µM | 51 µM |  | COc1cc(NC(C)CCCNC(=O)/C(C)=C/c2ccccc2)c2ncccc2c1 (stereo not drawn) [3b, (E)-N-(4-(6-Methoxyquinolin-8-ylamino)pentyl)-2-methyl-3-phenylacrylamide] | 5% | 37% | 2% | 2% | 79% |
| 45% | > 100 µM | 20 ± 3 µM | > 100 µM | > 125 µM | 61 ± 30 µM | 106 ± 6 µM |  | COc1ccc(/C=C/C(=O)NCCCC(C)Nc2cc(OC)cc3cccnc23)cc1 (stereo not drawn) [3c, (E)-3-(4-Methoxyphenyl)-N-(4-(6-methoxyquinolin-8-ylamino)pentyl)acrylamide] | 40% | 43% | 22% | 27% | 70% |
| 43% | > 100 µM | 16 ± 0.6 µM | > 100 µM | > 125 µM | 90 ± 45 µM | 100 ± 34 µM |  | COc1cc(NC(C)CCCNC(=O)/C=C/c2ccc(OC)c(OC)c2)c2ncccc2c1 (stereo not drawn) [3d, (E)-3-(3,4-Dimethoxyphenyl)-N-(4-(6-methoxyquinolin-8-ylamino)pentyl)acrylamide] | 34% | 31% |  |  | 73% |
| 26% | > 100 µM | 8.7 ± 0.3 µM | > 100 µM | > 125 µM | 55 ± 16 µM | 22 ± 2 µM |  | COc1cc(NC(C)CCCNC(=O)/C=C/c2cc(OC)c(OC)c(OC)c2)c2ncccc2c1 (stereo not drawn) [3e, (E)-N-(4-(6-Methoxyquinolin-8-ylamino)pentyl)-3-(3,4,5-trimethoxyphenyl)acrylamide] | 16% | 23% | 4% | 9% | 47% |
| 34% | > 100 µM | 6.9 ± 1.3 µM | > 100 µM | 72 ± 57 µM | 37 ± 27 µM | 59 ± 2 µM |  | COc1cc(NC(C)CCCNC(=O)/C=C/c2ccc3c(c2)OCO3)c2ncccc2c1 (stereo not drawn) [3f, (E)-3-(Benzo[d][1,3]dioxo-5-yl)-N-(4-(6-methoxyquinolin-8-ylamino)pentyl)acrylamide] | 11% | 33% |  |  | 87% |
